Experimental data: patent US7442703B2, “Piperidine derivatives useful as CCR5 antagonists” (priority 2001, dated 2008)
Structures can show the parent of a compound that is named as a salt.

System: HIV-1 luciferase reporter virus in U87-CD4-CCR5 cells
Assay: HIV Replication (luciferase) assay
Assay type: cell-based
Conditions: Human immunodeficiency virus 1, U87/CD4/CCR5
Protocol: Luciferase Replication Assay:
Plasmids encoding the full length genome of HIV-1 pNL-4-Luc with the gp120 V-3 loop replaced by the Bgl II fragment of HIV-1 ADA, YU-2 or HxB (ADA-Luc-FL, YU-2-Luc-FL and HxB-Luc-FL) are obtained from Dr. Susan Pontow (Washington University, St. Louis Mo.). Replication-competent luciferase reporter virus stocks are generated by transfection of plasmids into 293T cells using Superfect (Qiagen) or Mirus transfection reagents. Viral stocks are collected 48 hours following transfection and titered for luciferase production on U-87-CCR5 or CXCR4 cells. U87-CD4-CCR5 cells (10^4/well) are plated in 96-well cell culture plates and incubated overnight. Media is removed and replaced with 50 μl of fresh culture media (DMEM, 10% FCS) and 50 μl of compound diluted in culture medium. Cells are incubated with compound at 37° C. for 1 hour. The resultant supernatant is removed and replaced with 20 μl of media containing compound and infected with an equal volume of diluted or undiluted virus stock at 37° C. for 3-4 hours. The cells are washed once with DMEM, and 200 μl of media containing compound is added. The cultures are incubated for 3 days, the cells lysed in luciferase lysis buffer (Promega, Madison, Wis.) and transferred to Immulon plates (Dynex Technologies, Chantilly Va.). An equal volume of luciferase substrate (Promega, Madison Wis.) is added to lysates and the plates read immediately in a Wallac Luminometer. Fifty and ninety percent inhibitory concentrations are determined using GraphPad PRISM software.

Row | SMILES | IC50 [nM]
1 | Cc1ncnc(C)c1C(=O)N1CCC(C)(N2CCC(N(c3ccccc3)c3ccc(C(F)(F)F)nc3)CC2)CC1 [Compound 69] | 0.11
2 | Cc1ncnc(C)c1C(=O)N1CCC(C)(N2CCC(N(Cc3ccccc3)c3ccncc3)CC2)CC1 [Compound 108] | 0.8
3 | CCCN(c1cccc2cccnc12)C1CCN(C2(C)CCN(C(=O)c3c(C)ncnc3C)CC2)CC1 [Compound 110] | 23
4 | Cc1ncnc(C)c1C(=O)N1CCC(C)(N2CCC(N(Cc3ccccc3)C3CCCN(S(=O)(=O)C4CC4)C3)CC2)CC1 (stereo not drawn) [Compound 112] | 30

Same assay, conditions: Human immunodeficiency virus 1, U87/CD4/CCR5, read-out: HIV Replication (luciferase) IC50

Row | SMILES | IC50 [nM]
5 | C=CCOC(=O)NCCc1ccc(N(Cc2ccccc2)C2CCN(C3(C)CCN(C(=O)c4c(C)ncnc4C)CC3)CC2)cc1 [Compound 54] | 0.6
6 | Cc1ncnc(C)c1C(=O)N1CCC(C)(N2CCC(N(Cc3ccccc3)c3ccc(CCN)cc3)CC2)CC1 [Compound 55] | 3.5
7 | Cc1ncnc(C)c1C(=O)N1CCC(C)(N2CCC(N(Cc3ccccc3)c3ccc(CCNS(=O)(=O)C4CC4)cc3)CC2)CC1 [Compound 56] | 0.2
8 | Cc1ncnc(C)c1C(=O)N1CCC(C)(N2CCC(N(Cc3ccccc3)c3ccc(CCNS(=O)(=O)CC(F)(F)F)cc3)CC2)CC1 [Compound 57] | 0.4
9 | C=CCOC(=O)c1ccc(N(Cc2ccccc2)C2CCN(C3(C)CCN(C(=O)c4c(C)ncnc4C)CC3)CC2)cc1 [Compound 58] | 2
10 | Cc1ncnc(C)c1C(=O)N1CCC(C)(N2CCC(N(Cc3ccccc3)c3cccc(C(=O)O)c3)CC2)CC1 [Compound 59] | 4
11 | Cc1ncnc(C)c1C(=O)N1CCC(C)(N2CCC(N(Cc3ccccc3)c3ccc(C(=O)O)cc3)CC2)CC1 [Compound 60] | 27
12 | Cc1ncnc(C)c1C(=O)N1CCC(C)(N2CCC(N(Cc3ccccc3)c3cccc(C(N)=O)c3)CC2)CC1 [Compound 61] | 0.5
13 | Cc1ncnc(C)c1C(=O)N1CCC(C)(N2CCC(N(Cc3ccccc3)c3cccc(C(=O)N4CCOCC4)c3)CC2)CC1 [Compound 62] | 4
14 | CCN(CC)C(=O)c1cccc(N(Cc2ccccc2)C2CCN(C3(C)CCN(C(=O)c4c(C)ncnc4C)CC3)CC2)c1 [Compound 63] | 6
15 | Cc1ncnc(C)c1C(=O)N1CCC(C)(N2CCC(N(Cc3ccccc3)c3cccc(C(=O)NO)c3)CC2)CC1 [Compound 64] | 4
16 | Cc1ncnc(C)c1C(=O)N1CCC(C)(N2CCC(N(Cc3ccccc3)c3cccc(C(=O)Nc4ccccc4)c3)CC2)CC1 [Compound 65] | 2
17 | Cc1ncnc(C)c1C(=O)N1CCC(C)(N2CCC(N(Cc3ccccc3)c3cccc(C(=O)NCc4ccccc4)c3)CC2)CC1 [Compound 66] | 1
18 | Cc1ncnc(C)c1C(=O)N1CCC(C)(N2CCC(N(Cc3ccccc3)c3cccc(C(=O)NCCO)c3)CC2)CC1 [Compound 67] | 6
19 | Cc1ncnc(C)c1C(=O)N1CCC(C)(N2CCC(N(Cc3ccccc3)c3cccc(C(=O)NC4CC4)c3)CC2)CC1 [Compound 68] | 2
20 | Cc1ncnc(C)c1C(=O)N1CCC(C)(N2CCC(N(c3ccccc3)c3ccc(OC(F)(F)F)cc3)CC2)CC1 [Compound 70] | 1
21 | Cc1ncnc(C)c1C(=O)N1CCC(C)(N2CCC(N(c3ccccc3)c3ccc(Br)cn3)CC2)CC1 [Compound 71] | 0.6
22 | Cc1ncnc(C)c1C(=O)N1CCC(C)(N2CCC(N(c3ccccc3)c3ccccc3)CC2)CC1 [Compound 72] | 0.3
23 | Cc1ncnc(C)c1C(=O)N1CCC(C)(N2CCC(N(c3ccccc3)c3ccc(Cl)cc3)CC2)CC1 [Compound 73] | 0.3
24 | Cc1ncnc(C)c1C(=O)N1CCC(C)(N2CCC(N(CC3CC3)c3ccccc3)CC2)CC1 [Compound 74] | 10
25 | Cc1ncnc(C)c1C(=O)N1CCC(C)(N2CCC(N(CCc3ccccc3)c3ccccc3)CC2)CC1 [Compound 75] | 38
26 | Cc1ncnc(C)c1C(=O)N1CCC(C)(N2CCC(N(c3ccccc3)c3ccc(C(F)(F)F)cn3)CC2)CC1 [Compound 76] | 0.2
27 | Cc1ncnc(C)c1C(=O)N1CCC(C)(N2CCC(N(c3ccccc3)c3ccccn3)CC2)CC1 [Compound 77] | 7
28 | Cc1ncnc(C)c1C(=O)N1CCC(C)(N2CCC(N(c3ccccc3)c3ccc(Cl)cn3)CC2)CC1 [Compound 78] | 1
29 | Cc1ncnc(C)c1C(=O)N1CCC(C)(N2CCC(N(c3ccccc3)c3ccc(F)cc3)CC2)CC1 [Compound 79] | 1
30 | Cc1ncnc(C)c1C(=O)N1CCC(C)(N2CCC(N(Cc3cccnc3)c3ccccc3)CC2)CC1 [Compound 80] | 2

Row | SMILES | IC50 [nM]
31 | Cc1cc(-c2cc[n+]([O-])cc2)cc(C)c1C(=O)N1CCC(C)(N2CCC(N(c3ccccc3)c3ccc(OC(F)(F)F)cc3)CC2)CC1 [Compound 81] | 3
32 | Cc1cc(-c2cc[n+]([O-])cc2)cc(C)c1C(=O)N1CCC(C)(N2CCC(N(c3ccccc3)c3ccc(C(F)(F)F)nc3)CC2)CC1 [Compound 82] | 0.1
33 | Cc1cc(-c2cc[n+]([O-])cc2)cc(C)c1C(=O)N1CCC(C)(N2CCC(N(c3ccccc3)c3ccc(C(F)(F)F)cn3)CC2)CC1 [Compound 83] | 0.05
34 | Cc1cc(-c2cc[n+]([O-])cc2)cc(C)c1C(=O)N1CCC(C)(N2CCC(N(Cc3ccccn3)c3ccccc3)CC2)CC1 [Compound 84] | 10
35 | Cc1ncnc(C)c1C(=O)N1CCC(C)(N2CCC(N(Cc3ccncc3)c3ccccc3)CC2)CC1 [Compound 86] | 75
36 | Cc1ncnc(C)c1C(=O)N1CCC(C)(N2CCC(N(c3ccccc3)c3cccc(Br)c3)CC2)CC1 [Compound 87] | 0.1
37 | Cc1ncnc(C)c1C(=O)N1CCC(C)(N2CCC(N(Cc3ccncc3)c3ccc(Br)cc3)CC2)CC1 [Compound 88] | 5
38 | Cc1ncnc(C)c1C(=O)N1CCC(C)(N2CCC(N(Cc3ccccn3)c3ccc(Br)cc3)CC2)CC1 [Compound 89] | 0.8
39 | Cc1ncnc(C)c1C(=O)N1CCC(C)(N2CCC(N(Cc3ccccn3)c3ccccc3)CC2)CC1 [Compound 90] | 3.4
40 | COc1ccc(N(c2ccccc2)C2CCN(C3(C)CCN(C(=O)c4c(C)ncnc4C)CC3)CC2)cc1Cl [Compound 91] | 0.12
41 | Cc1ncnc(C)c1C(=O)N1CCC(C)(N2CCC(N(c3ccccc3)c3cc(Cl)cc(Cl)c3)CC2)CC1 [Compound 92] | 4.1
42 | Cc1ncnc(C)c1C(=O)N1CCC(C)(N2CCC(N(c3ccccc3)c3cccc(F)c3)CC2)CC1 [Compound 93] | 0.21
43 | COc1cccc(N(c2ccccc2)C2CCN(C3(C)CCN(C(=O)c4c(C)ncnc4C)CC3)CC2)c1 [Compound 94] | 1
44 | Cc1ncnc(C)c1C(=O)N1CCC(C)(N2CCC(N(c3ccccc3)c3ccc(Br)c(C(F)(F)F)c3)CC2)CC1 [Compound 95] | 2
45 | Cc1cccc(N(c2ccccc2)C2CCN(C3(C)CCN(C(=O)c4c(C)ncnc4C)CC3)CC2)c1 [Compound 96] | 0.3
46 | Cc1ncnc(C)c1C(=O)N1CCC(C)(N2CCC(N(Cc3cccnc3)c3ccc(Br)cc3)CC2)CC1 [Compound 97] | 0.3
47 | Cc1ncnc(C)c1C(=O)N1CCC(C)(N2CCC(N(CC3CCCCC3)c3ccc(Br)cc3)CC2)CC1 [Compound 98] | 2
48 | CCOc1ccc(N(c2ccccc2)C2CCN(C3(C)CCN(C(=O)c4c(C)ncnc4C)CC3)CC2)cc1 [Compound 99] | 0.3
49 | CCc1ccc(N(c2ccccc2)C2CCN(C3(C)CCN(C(=O)c4c(C)ncnc4C)CC3)CC2)cc1 [Compound 100] | 0.1
50 | Cc1ncnc(C)c1C(=O)N1CCC(C)(N2CCC(N(c3ccccc3)c3cc(F)cc(F)c3)CC2)CC1 [Compound 101] | 0.1
51 | COCCN(c1ccc(Br)cc1)C1CCN(C2(C)CCN(C(=O)c3c(C)ncnc3C)CC2)CC1 [Compound 103] | 2
52 | Cc1ncnc(C)c1C(=O)N1CCC(C)(N2CCC(N(c3ccccc3)c3ccccc3F)CC2)CC1 [Compound 104] | 3
53 | Cc1ncnc(C)c1C(=O)N1CCC(C)(N2CCC(N(c3ccccc3)c3ccc(Oc4ccccc4)cc3)CC2)CC1 [Compound 105] | 5
54 | Cc1ncnc(C)c1C(=O)N1CCC(C)(N2CCC(N(CC3CCCCC3)c3ccccc3)CC2)CC1 [Compound 106] | 1
55 | Cc1ncnc(C)c1C(=O)N1CCC(C)(N2CCC(N(c3ccccc3)c3ccc(I)cc3)CC2)CC1 [Compound 107] | 1

System: not given
Assay: not given
Conditions: not given

Row | SMILES | melting point
56 | Cc1ncnc(C)c1C(=O)N1CCC(C)(N2CCC(N(C)c3ccc(Cl)c4cccnc34)CC2)CC1 (as salt: HCl) | 164 to 167 °C (dec.)
57 | Cc1ncnc(C)c1C(=O)N1CCC(C)(N2CCC(N(Cc3ccccc3)c3ccc(Br)cc3)CC2)CC1 (as salt: HCl) | 168 to 170 °C
58 | Cc1ncnc(C)c1C(=O)N1CCC(C)(N2CCC(N(c3ccccc3)c3ccc(C(F)(F)F)nc3)CC2)CC1 (as salt: HCl) [Compound 69] | 189 to 193 °C
59 | Cc1ncnc(C)c1C(=O)N1CCC(C)(N2CCC(N(Cc3ccccc3)c3ccncc3)CC2)CC1 (as salt: HCl) [Compound 108] | 182 to 189 °C
60 | CCCN(c1cccc2cccnc12)C1CCN(C2(C)CCN(C(=O)c3c(C)ncnc3C)CC2)CC1 (as salt: HCl) [Compound 110] | 181 °C (dec.)
